Assay results published in ChEMBL document CHEMBL1201862, “PubChem BioAssay data set” (2004).
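Cultured in 96-well plates, cells were exposed to test compound for 48 hours across five concentrations. GI50 = concentration required for 50% inhibition of growth.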 Calls of active or inactive are those of the source. Cut-off read from the data, not from the text of the source: active = GI50 up to about 1.1 µM and inactive = higher.

Tests used:
Experiment in all cases: growth of human tumour cells (NCI), 48 h
CCRF-CEM = tested on: CCRF-CEM
HCT-116 = tested on: HCT-116
HT-29 = tested on: HT-29
MCF7 = tested on: MCF7
MDA-N = tested on: MDA-N
NCI-H23 = tested on: NCI-H23
NCI-H522 = tested on: NCI-H522
OVCAR-3 = tested on: OVCAR-3
OVCAR-4 = tested on: OVCAR-4
OVCAR-8 = tested on: OVCAR-8
PC-3 = tested on: PC-3
SF-268 = tested on: SF-268
SF-295 = tested on: SF-295
SK-MEL-28 = tested on: SK-MEL-28
SK-MEL-2 = tested on: SK-MEL-2
SNB-19 = tested on: SNB-19
SNB-75 = tested on: SNB-75
T47D = tested on: T47D
UACC-257 = tested on: UACC-257
UO-31 = tested on: UO-31

Compound | GI50 (CCRF-CEM) | GI50 (HCT-116) | GI50 (HT-29) | GI50 (MCF7) | GI50 (MDA-N) | GI50 (NCI-H23) | GI50 (NCI-H522) | GI50 (OVCAR-3) | GI50 (OVCAR-4) | GI50 (OVCAR-8) | GI50 (PC-3) | GI50 (SF-268) | GI50 (SF-295) | GI50 (SK-MEL-28) | GI50 (SK-MEL-2) | GI50 (SNB-19) | GI50 (SNB-75) | GI50 (T47D) | GI50 (UACC-257) | GI50 (UO-31)
CCOc1cc(C2SCC(=O)N2c2ccc(Oc3ccc(Cl)cc3)c(Cl)c2)ccc1O (stereo not given) | 13.7 µM (inactive) | 12.2 µM (inactive) | 17.1 µM (inactive) | 25.1 µM (inactive) | 23.1 µM (inactive) | 17 µM (inactive) | 13.2 µM (inactive) | 14 µM (inactive) | 16 µM (inactive) | 17.7 µM (inactive) | 16.6 µM (inactive) | 15.4 µM (inactive) | 18.9 µM (inactive) | 20 µM (inactive) | 14 µM (inactive) | 17.8 µM (inactive) | 21.2 µM (inactive) | 14.2 µM (inactive) | 17.5 µM (inactive) | 10 µM (inactive)
CCN(CC)CC[n+]1ccc2c(C)c3[nH]c4ccc(O)cc4c3c(C)c2c1 | 1.43 µM (inactive) | 6.47 µM (inactive) | 8.45 µM (inactive) | 2 µM (inactive) | 8.89 µM (inactive) | 3.82 µM (inactive) | 1.96 µM (inactive) | 14.9 µM (inactive) | 3.85 µM (inactive) | 3.72 µM (inactive) | 7.46 µM (inactive) | 1.12 µM (active) | 3.01 µM (inactive) | 7.13 µM (inactive) | 16 µM (inactive) | 1.21 µM (inactive) | 1 µM (active) | 2.67 µM (inactive) | 19.6 µM (inactive) | 28 µM (inactive)
CCCCCCC(N)(CCCCCC)C(=O)Nn1c(C)ccc1C | > 100 µM (inactive) | 10.9 µM (inactive) | 28.4 µM (inactive) | 14.6 µM (inactive) | > 100 µM (inactive) | 15.5 µM (inactive) | 53.8 µM (inactive) | > 100 µM (inactive) | > 100 µM (inactive) | 50 µM (inactive) | 5.14 µM (inactive) | 16 µM (inactive) | > 100 µM (inactive) | > 100 µM (inactive) | > 100 µM (inactive) | > 100 µM (inactive) | 29.4 µM (inactive) | 13.6 µM (inactive) | 36.4 µM (inactive) | 25.1 µM (inactive)
CCCCNCC(=O)O[C@]1(CC)C(=O)OCc2c1cc1n(c2=O)Cc2cc3ccccc3nc2-1 | 0.0127 µM (active) | 0.407 µM (active) | 0.838 µM (active) | 0.0998 µM (active) | 2.11 µM (inactive) | 0.0769 µM (active) | 0.224 µM (active) | 2.16 µM (inactive) | 7.19 µM (inactive) | 0.217 µM (active) | 1.85 µM (inactive) | 0.0851 µM (active) | 0.0705 µM (active) | 2.17 µM (inactive) | 3.14 µM (inactive) | 0.0542 µM (active) | 0.098 µM (active) | 0.219 µM (active) | 0.646 µM (active) | 0.207 µM (active)
O=c1cc(/N=N\c2ccc(Cl)c(Cl)c2)[nH]c(=O)[nH]1 | 0.033 µM (active) | 1.75 µM (inactive) | 1.73 µM (inactive) | 1.64 µM (inactive) | 1.8 µM (inactive) | 3.89 µM (inactive) | 1.07 µM (active) | 2.36 µM (inactive) | 2.91 µM (inactive) | 2.21 µM (inactive) | 5.74 µM (inactive) | 2.88 µM (inactive) | 15.3 µM (inactive) | 1.73 µM (inactive) | 5.2 µM (inactive) | 12.1 µM (inactive) | 9.62 µM (inactive) | 2.56 µM (inactive) | 2.38 µM (inactive) | 2.07 µM (inactive)
S=C(/N=C1/NCC(CN2CCN(c3ccccc3)CC2)O1)Nc1ccccc1 (stereo not given) | 30.5 µM (inactive) | 48.3 µM (inactive) | 42.2 µM (inactive) | 38.4 µM (inactive) | > 100 µM (inactive) | 29.3 µM (inactive) | > 100 µM (inactive) | 52.2 µM (inactive) | 49.3 µM (inactive) | > 100 µM (inactive) | 39.9 µM (inactive) | > 100 µM (inactive) | 49 µM (inactive) | > 100 µM (inactive) | 35.6 µM (inactive) | > 100 µM (inactive) | > 100 µM (inactive) | 29.7 µM (inactive) | > 100 µM (inactive) | 11.6 µM (inactive)
COC(=O)C(CCC1C=CN(S(=O)(=O)c2ccc(C)cc2)C1)/N=C/c1ccccc1 (stereo not given) | 1.99 µM (inactive) | 33.4 µM (inactive) | 30.9 µM (inactive) | 34.2 µM (inactive) | 38.3 µM (inactive) | 26.4 µM (inactive) | 34.4 µM (inactive) | 35.9 µM (inactive) | 46.1 µM (inactive) | 39.5 µM (inactive) | 32.7 µM (inactive) | 69.8 µM (inactive) | 41.1 µM (inactive) | 69.5 µM (inactive) | 20.1 µM (inactive) | 45 µM (inactive) | 52.5 µM (inactive) | 47.6 µM (inactive) | 50 µM (inactive) | 65.5 µM (inactive)
O=C(C1OC1c1ccc(F)cc1)C12CC3CC(CC(C3)C1)C2 (stereo not given) | 6.95 µM (inactive) | 5.98 µM (inactive) | 20.2 µM (inactive) | 22.2 µM (inactive) | 12.7 µM (inactive) | 22.1 µM (inactive) | 17.4 µM (inactive) | 14.9 µM (inactive) | 13.8 µM (inactive) | 14.4 µM (inactive) | 30.7 µM (inactive) | 22.4 µM (inactive) | 22.6 µM (inactive) | 24.4 µM (inactive) | 12.9 µM (inactive) | 33.4 µM (inactive) | 31 µM (inactive) | 25.1 µM (inactive) | 26.9 µM (inactive) | 20.9 µM (inactive)
NCCCN1CCN(CCCNc2ccc3nnn4c5ccccc5c(=O)c2c34)CC1 | 9.91 µM (inactive) | 6.73 µM (inactive) | 13.3 µM (inactive) | 16.2 µM (inactive) | 16.2 µM (inactive) | 14.8 µM (inactive) | 11.3 µM (inactive) | 37.4 µM (inactive) | 11.8 µM (inactive) | 20 µM (inactive) | 12.5 µM (inactive) | 31.3 µM (inactive) | 16.8 µM (inactive) | > 100 µM (inactive) | 18.7 µM (inactive) | 12.8 µM (inactive) | 17.7 µM (inactive) | 30.2 µM (inactive) | 28.2 µM (inactive) | 22.1 µM (inactive)
CC(C)(C)O/C=C1/C(=O)OC2C[C@@H](O[Si](C)(C)C(C)(C)C)CC12 (stereo not given in full) | 42.7 µM (inactive) | 37.1 µM (inactive) | 68.1 µM (inactive) | 36.1 µM (inactive) | > 100 µM (inactive) | 39.7 µM (inactive) | 27.6 µM (inactive) | 48.4 µM (inactive) | 74 µM (inactive) | 48.1 µM (inactive) | 45.5 µM (inactive) | 80.9 µM (inactive) | 61.5 µM (inactive) | > 100 µM (inactive) | > 100 µM (inactive) | 94.2 µM (inactive) | 16.8 µM (inactive) | 23.3 µM (inactive) | 41.5 µM (inactive) | 52.2 µM (inactive)
